Inhibition data for six molecules are collected here from patent US12479821B2 (MBD CO., LTD., priority 2019, dated 2025).

This assay has as its target T1, CYP4A (Homo sapiens, UniProt Q02928).
T1 construct: host or cells: bactosome, i.e. bacterial membrane preparation (own knowledge of the term)
T1 sequence (Q02928 5-519): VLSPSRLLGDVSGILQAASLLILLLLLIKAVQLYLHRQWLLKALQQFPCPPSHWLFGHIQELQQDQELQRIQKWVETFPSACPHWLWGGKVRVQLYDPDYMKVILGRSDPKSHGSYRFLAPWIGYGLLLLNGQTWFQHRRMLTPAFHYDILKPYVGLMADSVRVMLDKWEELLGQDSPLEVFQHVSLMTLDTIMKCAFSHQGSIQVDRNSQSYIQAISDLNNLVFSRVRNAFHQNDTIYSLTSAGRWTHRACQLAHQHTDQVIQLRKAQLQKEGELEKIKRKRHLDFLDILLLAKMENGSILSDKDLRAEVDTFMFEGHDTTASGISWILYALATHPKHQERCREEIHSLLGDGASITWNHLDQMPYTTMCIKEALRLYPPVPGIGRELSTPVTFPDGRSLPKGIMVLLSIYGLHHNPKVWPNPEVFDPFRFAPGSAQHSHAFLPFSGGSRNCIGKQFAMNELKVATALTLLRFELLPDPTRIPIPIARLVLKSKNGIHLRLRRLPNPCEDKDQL
The assay can be described thus: CYP4A enzyme assay (Luciferin-ME luminescence, CYP4A bactosome). The conditions noted are these: compound concentration 5 μM; 75% or more; read-out: % Inhibition 75% or more. The assay is classed as biochemical. In a few lines: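 CYP4A bactosome preincubated 15 min at room temperature with compound (5 μM) in 100 mM KPO4, 0.1% BSA, 1 mM DTT. Luciferin-ME (5 mM) plus NADPH regeneration system added, 30 min at room temperature, then detection reagent for 15 min. Inhibition derived from luminescence versus controls.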

A value given as a limit tells only on which side of the number the result lay.

Broadly, the inhibition is the drop in the measured response relative to a control, in per cent. Regarding `O=C(C1CCCN(S(=O)(=O)c2ccc(-c3ccncc3)cc2)C1)N1CCN(c2ccnc3ccccc23)CC1` (stereo not drawn) [Formula 113, (1-(4-(pyridin-4-yl)phenylsulfonyl)piperidin-3-yl) (4-(quinolin-4-yl)piperazin-1-yl) methanone], the inhibition at 5 µM is at least 75%.

`O=C(C1CCCN(S(=O)(=O)c2ccc(-c3cccnc3)cc2)C1)N1CCN(c2ccnc3ccccc23)CC1` (stereo not drawn) [Formula 114, (1-(4-(pyridin-3-yl)phenylsulfonyl)piperidin-3-yl) (4-(quinolin-4-yl)piperazin-1-yl) methanone]: the inhibition at 5 µM was at least 75%.

As to `Cc1ncc(-c2ccc(S(=O)(=O)N3CCCC(C(=O)N4CCN(c5ccnc6ccccc56)CC4)C3)cc2)cn1` (stereo not drawn) [Formula 115, (1-(4-(2-methylpyrimidin-5-yl)phenylsulfonyl)piperidin-3-yl) (4-(quinolin-4-yl)piperazin-1-yl) methanone], the inhibition at 5 µM was at least 75%.

Regarding `CC(=O)Nc1ccc(S(=O)(=O)N2CCCC(C(=O)N3CCN(c4ccnc5cc(Cl)ccc45)CC3)C2)cc1` (stereo not drawn) [Formula 116, N-(4-(3-(4-(7-chloroquinolin-4-yl)piperazine-1-carbonyl)piperidin-1-ylsulfonyl)phenyl) acetamide], the inhibition at 5 µM is at least 75%.

For `O=C(C1CCCN(S(=O)(=O)c2ccc([N+](=O)[O-])cc2)C1)N1CCN(c2ccnc3cc(Cl)ccc23)CC1` (stereo not drawn) [Formula 117, (4-(7-chloroquinolin-4-yl)piperazin-1-yl) (1-(4-nitrophenylsulfonyl)piperidin-3-yl) methanone], the inhibition at 5 µM is at least 75%.

For the molecule `CCCCc1ccc(N=CNO)c(C)c1` [HET-0016, N-hydroxy-N′-(4-butyl-2-methylphenyl)-formamidine, reference compound], the inhibition at 5 µM is at least 75%.
